pIC50: −log10 of the molar value.
Molecular target: Acetyl-CoA carboxylase 1 (Homo sapiens, UniProt Q13085)
Assay: etermination of IC50 of Inhibition of Enzymatic Activity of ACC1 and ACC2 by the Compound of the Present Disclosure: The degree of inhibition of the enzymatic activity of recombinant human ACC1, ACC2 proteins under in-vitro conditions by the preferred compounds of the present disclosure is determined by the following method.The principle of the method was based on the reaction of ACC protein-catalyzed acetyl-CoA to form malonyl-CoA. ATP was consumed during this reaction and ADP was produced. The produced ADP was reconverted into ATP by using ADP-Glo™ Kinase Kit from Promega. This part of ATP reacted with the luciferase-fluorescence in the kit, and generated chemiluminescent signals. Thus, by measuring the intensity of chemiluminescent signal, the amount of ADP produced in the catalytic reaction was reflected, thereby indirectly determining the enzymatic activity of ACC protein and the effect of the tested compound on the enzymatic activity. […]

- pIC50: 7.88
Compound: CCOc1ccc(F)cc1[C@H](Cn1c(=O)n(C(C)(C)C(N)=O)c(=O)c2c(C)c(C#N)sc21)OC1CCOCC1
